# Laboratory results from patent US10098889B2, “Complexes and salts of dihydropyrimidine derivatives and their application in pharmaceuticals” (SUNSHINE LAKE PHARMA CO., LTD., priority 2015, dated 2018).
# Tests used:
# Assay type in all cases: physicochemical
# [1] = Stability studies under high temperature, high humidity and illumination conditions (overall assessment); conditions: for Stability under high temperature, high humidity and illumination condition (in words): compared with amorphous compound (I)
# Experimental: (§1) High temperature test: an appropriate amount of sample was put in a weighing bottle in the form of a thin layer of ≤5 mm, under a temperature of 60° C. for 10 days. Appearance, impurity and purity of the samples were tested respectively at the 5th and 10th day. […] If the sample has no significant change occurred at 60° C., it is not necessary to do the experiment under the condition of 40° C.
# (§2) High humidity test: an appropriate amount of sample was put in a weighing bottle in the form of a thin layer of ≤5 mm, under a temperature of 25° C. for 10 days. Appearance, impurity and purity were tested respectively at the 5th and 10th day. If the moisture-absorption weight of the sample gains more than 5%, then the sample needs to be retested in the same manner under the conditions of 25° C. and RH75%±5%. If the moisture-absorption weight of the sample gains less than 5%, and other results meets the requirements, it is not necessary to do the experiment any more. (Note: the weighing bottle should be presaturated for one day by putting it into the humidistat (or a dryer containing a saturated solution of potassium nitrate) before high humidity test, then weighing the sample and weighing bottle together, and record the weight.)
# (§3) Illumination test: an appropriate amount of sample was put in a weighing bottle in the form of a thin layer of ≤5 mm, under a […] for 13 days. Appearance, impurity and purity of the samples were tested respectively at the 5th and 13th day.
# [2] = High temperature test (stability study)
# Experimental: as §1
# (§4) Experimental results of stability study of the compound of (S)-4-(((R)-6-(2-chloro-4-fluorophenyl)-5-(methoxycarbonyl)-2-(thiazol-2-yl)-3,6-dihydropyrimidin-4-yl)methyl)morpholine-3-carboxylic acid amorphous and the complex of (S)-4-(((R)-6-(2-chloro-4-fluorophenyl)-5-(methoxycarbonyl)-2-(thiazol-2-yl)-1,6-dihydropyrimidin-4-yl)methyl)morpholine-3-carboxylic acid and L-tartaric acid and its various salt forms under high temperature, high humidity and illumination conditions are shown in Table 4.
# [3] = Illumination test (stability study)
# Experimental: as §3, §4
# [4] = High humidity test (stability study); conditions: 25° C.
# Experimental: as §2, §4
# [5] = Experimental study of hygroscopicity; conditions: for Weighting percentage of moisture absorption (%): constant humidity
# Experimental: A dry glass weighing bottle with a plug was placed in a suitable thermostatic drier at 25° C.±1° C. (ammonium chloride and saturated solution of ammonium sulfate were placed on the bottom) on the day before the experiment, and weighed precisely. The propriate amount of the sample was plated into the weighing bottle, wherein the thickness of the sample typically is about 1 mm, and weighed precisely (m2). The weighing bottle was open and placed with the plug in the above constant temperature and humidity condition for 24 hours. The capped weighing bottle was weighed precisely (m3), and the weight gain percentage was calculated (%).
# Test method: according to the Ph. Eur. <5.11>; Ch. P. 2010; II appendix XIX J; Weighting percentage of moisture absorption (%)=(m3−m2)/(m2−m1)×100%
# Hygroscopicity characteristics: weighting percentage of moisture absorption
# Judgement of Hygroscopicity Result:
# (1) Air slaking: absorbing enough water to form liquid
# (2) Of quite hygroscopicity: not less than 15%
# (3) Of hygroscopicity: less than 15% but not less 2%
# (4) Of slight hygroscopicity: less than 2% but not less than 0.2%
# Solubility (HPLC) = test: Solubility (HPLC)
# Experimental: The solubility disclosed herein was measured by Aglient 1200 high performance liquid chromatograph VWD detector. The chromatographic column model is Waters Xbridge-C18 (4.6×150 mm, […]). The detection wavelength was 250 nm, the flow rate was 1.0 mL/minute, the column temperature was 35° C., the mobile phase was acetonitrile water (v/v=40/60).
# [6] = High temperature, 60° C., 5 days
# [7] = High temperature, 60° C., 10 days
SMILES,Appearance ([2]; 0 days),Purity (%) ([2]; 0 days),Total impurity (%) ([2]; 0 days),"Appearance [2, 6]","Purity (%) [2, 6]","Total impurity (%) [2, 6]","Appearance [2, 7]","Purity (%) [2, 7]","Total impurity (%) [2, 7]",Appearance ([3]; 5 days),Purity (%) ([3]; 5 days),Total impurity (%) ([3]; 5 days),Appearance ([3]; 13 days),Purity (%) ([3]; 13 days),Total impurity (%) ([3]; 13 days),Appearance ([4]; 5 days),Purity (%) ([4]; 5 days),Total impurity (%) ([4]; 5 days),Appearance ([4]; 10 days),Purity (%) ([4]; 10 days),further results
"Br.COC(=O)C1=C(CN2CCOC[C@H]2C(=O)O)N=C(c2nccs2)N[C@H]1c1ccc(F)cc1Cl [(S)-4-(((R)-6-(2-chloro-4-fluorophenyl)-5-(methoxycarbonyl)-2-(thiazol-2-yl)-1,6-dihydropyrimidin-4-yl)methyl)morpholine-3-carboxylic Acid Hydrobromide]",yellow,99.70%,0.30%,yellow,99.69%,0.31%,yellow,99.63%,0.37%,yellow,97.63%,2.37%,yellow,96.06%,3.94%,yellow,99.68%,0.32%,yellow,99.64%,"Stability under high temperature, high humidity and illumination condition (in words) [1]: better stability; Total impurity (%) ([4]; 10 days): 0.36%"
"COC(=O)C1=C(CN2CCOC[C@H]2C(=O)O)N=C(c2nccs2)N[C@H]1c1ccc(F)cc1Cl.Cl [(S)-4-(((R)-6-(2-chloro-4-fluorophenyl)-5-(methoxycarbonyl)-2-(thiazol-2-yl)-1,6-dihydropyrimidin-4-yl)methyl)morpholine-3-carboxylic Acid Hydrochloride]",yellow,99.63%,0.37%,yellow,99.63%,0.37%,yellow,99.43%,0.57%,yellow,97.59%,2.41%,yellow,97.47%,2.53%,yellow,99.65%,0.35%,yellow,99.59%,"Stability under high temperature, high humidity and illumination condition (in words) [1]: better stability; Total impurity (%) ([4]; 10 days): 0.41%"
"COC(=O)C1=C(CN2CCOC[C@H]2C(=O)O)NC(c2nccs2)=N[C@H]1c1ccc(F)cc1Cl [(S)-4-(((R)-6-(2-chloro-4-fluorophenyl)-5-(methoxycarbonyl)-2-(thiazol-2-yl)-3,6-dihydropyrimidin-4-yl)methyl)morpholine-3-carboxylic Acid]",a yellow,97.54%,2.46%,a yellow,96.99%,3.01%,a yellow,95.65%,4.35%,a yellow,93.72%,6.28%,a yellow,90.56%,9.44%,a yellow,97.51%,2.49%,a yellow,97.42%,"Hygroscopicity (in words) [5]: certain hygroscopicity; Weighting percentage of moisture absorption (%) ([5]; 25° C.±1° C., 24 hours, listed as Compound (I) prepared by Example 1): 1.441%; Weighting percentage of moisture absorption (%) ([5]; 25° C.±1° C., 24 hours, listed as compound (I)): 1.441%; Total impurity (%) ([4]; 10 days): 2.58%"
"COC(=O)C1=C(CN2CCOC[C@H]2C(=O)O)N=C(c2nccs2)N[C@H]1c1ccc(F)cc1Cl.O=C(O)C(O)C(O)C(=O)O [Complex of (S)-4-(((R)-6-(2-chloro-4-fluorophenyl)-5-(methoxycarbonyl)-2-(thiazol-2-yl)-1,6-dihydropyrimidin-4-yl)methyl)morpholine-3-carboxylic Acid and L-tartaric Acid]",yellow,99.85%,0.15%,yellow,99.83%,0.17%,yellow,99.84%,0.16%,yellow,99.86%,0.14%,yellow,99.84%,0.16%,yellow,99.84%,0.16%,yellow,99.82%,"Stability under high temperature, high humidity and illumination condition (in words) [1]: best stability; Change of appearance and purity under high temperature, high humidity and illumination condition ([1]; listed as L-tartaric acid complex having crystalline form I(A)): basically unchanged; Change of appearance and purity under high temperature, high humidity and illumination condition ([1]; listed as complex formed from compound (I) and L-tartaric acid): unchanged substantially; oxide impurities ([2]; preparation purity, from Table 4): less than 0.2%; Hygroscopicity (in words) [5]: much smaller; Judgement of hygroscopicity result ([5]; 25° C.±1° C., 24 hours): of no or little hygroscopicity; Weighting percentage of moisture absorption (%) ([5]; 25° C.±1° C., 24 hours, listed as Crystalline form I(A) of the complex of compound (Ia) and L-tartaric acid): 0.029%; Weighting percentage of moisture absorption (%) ([5]; 25° C.±1° C., 24 hours, listed as crystalline form I(A) of the complex of compound (Ia) and L-tartaric acid): 0.029%; Solubility (in words) (Solubility (HPLC)): good solubility; Total impurity (%) ([4]; 10 days): 0.18%"
